Patent publication US20170327455A1, “Omefibrates for Treating Dyslipidemia and Cardiovascular Disease” (Jiva Pharma, Inc., priority 2014, published 2017)
Entries after “also recorded” stand apart in the source; their conditions may differ.

Tests used:
PPARα = biological target: T1, PPARα (Homo sapiens, UniProt Q07869); assay: PPARα agonist assay: GAL4-PPAR ligand-binding domain luciferase reporter in live cells; format: cell-based; conditions: FIG. 1; for activation of PPARα transcriptional activity (normalized luciferase activity): GAL4-regulated luciferase reporter, live cells
T1 construct: expressed in transfected cells
T1 sequence (Q07869 239-466 limits assumed): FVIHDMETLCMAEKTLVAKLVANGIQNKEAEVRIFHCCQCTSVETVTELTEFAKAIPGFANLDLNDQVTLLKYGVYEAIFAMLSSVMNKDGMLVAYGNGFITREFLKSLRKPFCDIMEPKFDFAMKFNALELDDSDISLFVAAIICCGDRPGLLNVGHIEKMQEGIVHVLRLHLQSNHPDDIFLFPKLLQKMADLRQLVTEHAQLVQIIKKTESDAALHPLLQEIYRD
Method: The activity of JIVA-0018, JIVA-0019 and JIVA-0020 was determined in a PPARα-dependent transcription assay. This assay was carried out in live cells treated with these above compounds, and provides a direct measurement of a compound's ability to activate PPARα. This PPARα activity assay is a standard nuclear receptor ligand activity assay that utilizes the ligand-binding domain of the PPAR receptor fused to a heterologous GAL4 DNA binding domain. The transcriptional read-out is from a GAL4-regulated luciferase reporter. In this assay, compounds that activate the receptor cause an increase in luciferase activity measured in a luminometer.

PPARδ = biological target: T2, PPARδ (Homo sapiens, UniProt Q03181); assay: PPARδ Agonist Assay (luciferase reporter); format: cell-based; conditions: FIG. 2
T2 construct: expressed in transfected cells
T2 sequence (Q03181 211-439 limits assumed): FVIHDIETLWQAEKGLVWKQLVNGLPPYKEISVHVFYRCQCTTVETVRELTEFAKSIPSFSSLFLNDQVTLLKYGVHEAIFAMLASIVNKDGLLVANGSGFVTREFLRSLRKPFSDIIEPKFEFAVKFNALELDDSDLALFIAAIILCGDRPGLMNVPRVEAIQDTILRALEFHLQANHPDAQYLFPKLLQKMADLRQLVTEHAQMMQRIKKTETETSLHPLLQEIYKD

activity on PPARδ (normalized luciferase activity) (PPARδ)	Molecule	activation of PPARα transcriptional activity (normalized luciferase activity) (PPARα)	EC50 (PPARα; estimated from the data, read-out: EC50 for activation of PPARα) [µM]
at the base line	CC/C=C\C/C=C\C/C=C\C/C=C\C/C=C\CCCCC(C)(C)C(=O)O [JIVA-0018, EPA Fibrate or EPA-Fibric Acid]	neither the EPA-fibrate, JIVA-0018 nor the DHA-fibrate, JIVA-0020 stimulated PPARα activity; also recorded: at the base line	
at the base line	CC/C=C\C/C=C\C/C=C\CCCCCCCCC(C)(C)C(=O)O [JIVA-0019, ALA Fibrate]	strongly activated PPARα; also recorded: potent and selective activator of PPARα	
	DHA Fibrate [JIVA-0020]	neither the EPA-fibrate, JIVA-0018 nor the DHA-fibrate, JIVA-0020 stimulated PPARα activity	> 20
